Results from paper PMC4610302 (Journal of Medicinal Chemistry, 2015).

Experiments:
[1] = test system: OTUB2 gene in cells with only ERα; conditions: MCF-7 cells with only ERα, qPCR, 24 h
[2] = biological target: purified full-length human ERβ (Homo sapiens, UniProt Q92731); assay: biochemical
[3] = biological target: hERβ (Homo sapiens, UniProt Q92731); conditions: HEC-1 reporter assay

SMILES | Stimulation of OTUB2 in cells with only ERα [1] | Ki [2] [nM] | Reduction in potency on ERβ compared to 2a [3] [fold]
C/C(=N\O)c1cc(-c2ccc(O)cc2)ccc1O [2a, (E)-1-(6-Hydroxy-3-(4-hydroxyphenyl)phenyl)ethanone Oxime] | no stimulation | 1.1 | 
C/C(=N\O)c1cc(-c2ccc(O)c(F)c2)ccc1O [2c, (E)-1-(6-Hydroxy-3-(3-fluoro-4-hydroxyphenyl)phenyl)ethanone Oxime] | no stimulation |  | ~4
